Measured values as given in US8784887B2, “Pharmaceutical preparation of N-[5-(aminosulfonyl)-4-methyl-1,3-thiazol-2-yl]-N-methyl-2-[4-(2-pyridinyl)phenyl]acetamide” (Aicuris GmbH & Co. KG, priority 2005, dated 2014).

Assay: release experiments with pure active compound (I) and with state-of-the-art preparations
Type: physicochemical
Conditions: release experiments using pure active compound (I)
Description: If those preparations known from the state of the art are applied to the active compound (I) described here, it has unexpectedly been shown that there is no immediate release of the active compound but that there is a markedly delayed release which is therapeutically not desired.

Compound: Cc1nc(N(C)C(=O)Cc2ccc(-c3ccccn3)cc2)sc1S(N)(=O)=O [active compound (I), N-[5-(Aminosulfonyl)-4-methyl-1,3-thiazol-2-yl]-N-methyl-2-[4-(2-pyridinyl)phenyl]acetamide]
- release behavior of pure active compound (in words): “clumping” or a gel formation
